From ChEMBL document CHEMBL1201862, “PubChem BioAssay data set” (2004)
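Following 48 hours of exposure in 96-well plates, responses at five concentrations were used to interpolate endpoints linearly. Here, GI50 denotes the concentration required for 50% inhibition of growth.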 The source made the active and inactive calls. Rule as the data show it: active = GI50 up to about 1.1 µM and inactive = higher.

Legend:
Assay in all cases: NCI tumour cell line growth inhibition, 48 h
A498 = system: A498
A549 = system: A549
CAKI-1 = system: CAKI-1
EKVX = system: EKVX
HL-60 = system: HL-60
HT-29 = system: HT-29
IGROV-1 = system: IGROV-1
K562 = system: K562
NCI-H522 = system: NCI-H522
SF-268 = system: SF-268
SF-295 = system: SF-295
SN12C = system: SN12C
SNB-75 = system: SNB-75
LOX IMVI = system: LOX IMVI
RXF 393 = system: RXF 393
HOP-92 = system: HOP-92

Measured: GI50

C/C(CN1C(=O)c2ccccc2C1=O)=N\NS(=O)(=O)c1cccc(C(=O)O)c1
inactive: A498 > 100 µM | A549 > 100 µM | CAKI-1 > 100 µM | EKVX > 100 µM | HL-60 > 100 µM | HT-29 > 100 µM | IGROV-1 > 100 µM | K562 > 100 µM | NCI-H522 > 100 µM | SF-268 > 100 µM | SF-295 > 100 µM | SN12C > 100 µM | SNB-75 > 100 µM

CC1(OCc2ccccc2)C(=O)N2C1NCC2(C)C (stereo unspecified)
inactive: A498 > 100 µM | A549 > 100 µM | EKVX > 100 µM | HL-60 > 100 µM | HT-29 > 100 µM | IGROV-1 > 100 µM | K562 > 100 µM | LOX IMVI > 100 µM | RXF 393 > 100 µM | SF-268 > 100 µM | SF-295 > 100 µM | SN12C > 100 µM | SNB-75 > 100 µM

O=C(NCCCCCCNC(=O)NC1OCC(O)C(O)C1O)NC1OCC(O)C(O)C1O (stereo unspecified)
inactive: A549 > 100 µM | CAKI-1 > 100 µM | EKVX > 100 µM | HL-60 > 100 µM | HOP-92 > 100 µM | HT-29 > 100 µM | IGROV-1 > 100 µM | K562 > 100 µM | LOX IMVI > 100 µM | NCI-H522 > 100 µM | RXF 393 > 100 µM | SF-268 > 100 µM | SF-295 > 100 µM | SN12C > 100 µM | SNB-75 64.9 µM

N#Cc1ccc(Sc2nc3ccccc3[nH]2)cc1
inactive: A549 78.2 µM | CAKI-1 > 100 µM | EKVX > 100 µM | HL-60 84.3 µM | HOP-92 > 100 µM | HT-29 > 100 µM | IGROV-1 86.7 µM | K562 > 100 µM | LOX IMVI > 100 µM | NCI-H522 > 100 µM | RXF 393 > 100 µM | SF-268 > 100 µM | SF-295 > 100 µM | SN12C > 100 µM

CO[C@@]1(c2ccccc2)O[C@H]2OCCC2[C@H]1c1ccc(Cl)cc1 (stereo partly specified)
inactive: A498 25.5 µM | A549 32.7 µM | CAKI-1 28.8 µM | EKVX 24.7 µM | HT-29 20.3 µM | IGROV-1 97.7 µM | K562 29.9 µM | LOX IMVI 32.4 µM | NCI-H522 16.4 µM | RXF 393 17.7 µM | SF-268 56.9 µM | SF-295 21.3 µM | SN12C 51.5 µM | SNB-75 28.8 µM

O=C(CC1S/C(=N\c2ccccc2Cl)NC1=O)Nc1ccc(Cl)cc1 (stereo unspecified)
inactive: A498 > 100 µM | A549 > 100 µM | CAKI-1 > 100 µM | EKVX > 100 µM | HL-60 94.4 µM | HT-29 64 µM | IGROV-1 > 100 µM | K562 79.1 µM | LOX IMVI 99.3 µM | RXF 393 > 100 µM | SF-268 > 100 µM | SF-295 > 100 µM | SN12C > 100 µM

O=C1C[C@@H]2[C@@H](C=CC23CC3)N1O
inactive: A498 > 100 µM | A549 > 100 µM | CAKI-1 > 100 µM | EKVX > 100 µM | HL-60 > 100 µM | HT-29 > 100 µM | IGROV-1 > 100 µM | K562 > 100 µM | LOX IMVI > 100 µM | NCI-H522 > 100 µM | RXF 393 > 100 µM | SF-268 > 100 µM | SF-295 > 100 µM | SN12C > 100 µM | SNB-75 > 100 µM

CSc1nc(SC)c2c(C#N)n[nH]c2n1
inactive: A498 > 100 µM | A549 > 100 µM | CAKI-1 > 100 µM | EKVX > 100 µM | HOP-92 48.5 µM | HT-29 > 100 µM | IGROV-1 > 100 µM | K562 > 100 µM | LOX IMVI > 100 µM | NCI-H522 > 100 µM | RXF 393 > 100 µM | SF-268 > 100 µM | SF-295 > 100 µM | SN12C > 100 µM | SNB-75 63.5 µM

CN(C)CCS/C(=N\c1ccccc1)n1cccc1
inactive: A549 > 100 µM | CAKI-1 > 100 µM | HL-60 32.7 µM | HOP-92 24 µM | HT-29 41.5 µM | IGROV-1 > 100 µM | K562 53.6 µM | LOX IMVI 43.5 µM | NCI-H522 33.9 µM | RXF 393 27.1 µM | SF-268 32.4 µM | SF-295 > 100 µM | SN12C 54.1 µM | SNB-75 27.6 µM

Clc1cc(Cl)c2ns[s+]c2c1Cl
inactive: A498 > 100 µM | A549 > 100 µM | CAKI-1 > 100 µM | EKVX > 100 µM | HL-60 > 100 µM | HT-29 > 100 µM | IGROV-1 > 100 µM | K562 > 100 µM | LOX IMVI > 100 µM | NCI-H522 > 100 µM | RXF 393 > 100 µM | SF-268 > 100 µM | SF-295 > 100 µM | SN12C > 100 µM | SNB-75 43.4 µM
